From patent publication US7303921B2, “Method to assay coenzyme Q10 in blood plasma or blood serum” (priority 2002, dated 2007) come the findings set out here.

Data set [1] is described as follows: Stability of total CoQ10 in plasma at different storage conditions and times. In kind it is physicochemical, human. The method, then: In order to check the stability of total CoQ10 in plasma, aliquots of 3 different samples were kept for 3 days at 4° C., room temperature (22° C.) and at −20° C. respectively.
(§1) Description of the Analysis. 200 μl of a blood plasma sample were supplemented with 50 μl of a 1,4 benzoquinone solution (2 mg/ml) in a test tube and vortexed for 10 seconds. After 10 minutes, 1 ml of n-propanol was added. The test tube was vortexed for 10 seconds and centrifuged at 10,000 rpm for 2 minutes in order to spin down the protein precipitate. 200 μl of the supernatant were injected into the HPLC. […] Mobile phase was constituted by ethanol-methanol (65%-35%) and the flux was 1 ml/min. UV detection was performed at 275 nm.

A short description of data set [2]: Stability of the n-propanol extract (supernatant) of plasma CoQ10. It is filed as physicochemical. The protocol: as §1
For practical reasons the propanol extract can be kept in the refrigerator up to 3 days before injection into the HPLC. Several samples were checked by analysing them 1 hour, 1, 2 and 4 days after drawing the blood, keeping the samples at −20° C., 0-4° C., or +22° C. (room temperature) and the results, as far as total CoQ10 was concerned, were the same for the same sample whether kept at different temperatures or for different lengths of time (presumably only the reduced/oxidised CoQ10 ratio changed). There was no need to add any stabilizing agent to the sample.

Several values for one entry are separate records, joined by “and”; a condition that tells them apart may be missing. Identical values can stand only once.

For `COC1=C(OC)C(=O)C(C/C=C(\C)CC/C=C(\C)CC/C=C(\C)CC/C=C(\C)CC/C=C(\C)CC/C=C(\C)CC/C=C(\C)CC/C=C(\C)CC/C=C(\C)CCC=C(C)C)=C(C)C1=O` [CoQ10], the “Mean total CoQ10” value in data set [1] (0-4° C., 72 h, plasma samples A, B, C) was 1.82 µM and 1.11 µM. For the same molecule, the “total CoQ10 result after storage of samples” value in data set [1] (1 hour, 1, 2 and 4 days after drawing the blood, −20° C., 0-4° C. or +22° C., no stabilizing agent) is reported as “the same”. In addition, the “stability of total CoQ10 in plasma” value in data set [1] (even when kept at room temperature) was “practically stable for at least three days”. Further, in data set [2] (capped test tube, kept at 22° C.), the “stability of supernatant (propanol extract)” value is recorded as “stable for up to three days”. For the same molecule, the “time the propanol extract can be kept before injection into the HPLC” value in data set [2] (in the refrigerator) was “up to 3 days”.
